Measurements taken from patent US20050129765A1, “Controlled release of topiramate in liquid dosage forms” (priority 2003, published 2005).

How the values were obtained:
[1] = Drug solubility in various carriers; assay type: physicochemical
[2] = cited from earlier work

Compound: CC1(C)O[C@@H]2[C@@H](CO[C@@]3(COS(N)(=O)=O)OC(C)(C)O[C@@H]23)O1 [topiramate, 2,3:4,5-di-O-isopropylidene-β-D-fructopyranose sulfamate]
- solubility in carrier ([1]; 20-30% topiramate in 90/10, 80/20 or 70/30 PEG 400/Cremophor EL): completely soluble
- solubility in carrier ([1]; 45% topiramate in 100% of PEG400): completely soluble
- solubility (qualitative) ([2]; alkaline solutions containing sodium hydroxide or sodium phosphate, acetone, dimethylsulfoxide and ethanol): soluble
- solubility in water ([2]; in water): about 9.8 mg/ml
